One block for each compound: values may come before it. Activity calls are given as the source filed them.
What was measured:
[1] = biological target: T1, DNA repair protein RAD52 homolog (Homo sapiens, UniProt P43351); format: functional, biochemical
T1 sequence (P43351 whole entry): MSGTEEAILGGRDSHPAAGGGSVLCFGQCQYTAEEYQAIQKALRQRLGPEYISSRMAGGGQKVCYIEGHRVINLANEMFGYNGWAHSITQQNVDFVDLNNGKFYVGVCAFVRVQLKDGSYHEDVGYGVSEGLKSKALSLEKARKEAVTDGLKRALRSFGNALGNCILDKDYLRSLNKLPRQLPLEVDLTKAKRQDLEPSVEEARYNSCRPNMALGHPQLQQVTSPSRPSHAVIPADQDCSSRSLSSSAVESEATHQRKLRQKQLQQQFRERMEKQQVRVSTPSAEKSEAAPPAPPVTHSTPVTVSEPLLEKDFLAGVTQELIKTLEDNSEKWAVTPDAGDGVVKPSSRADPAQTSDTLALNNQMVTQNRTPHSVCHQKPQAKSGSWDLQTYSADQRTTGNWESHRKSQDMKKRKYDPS

[2] = biological target: DNA (cytosine-5)-methyltransferase 1 (Homo sapiens, UniProt P26358); test: DNMT1 methyltransferase inhibitors, confirmation, biochemical, fluorescent molecular beacon (AID 602386); format: functional
HEK293 [3] = test: cells; conditions: Homo sapiens
[4] = Counterscreen for activators of the function of SWI/SNF related, matrix associated, actin dependent regulator of chromatin, subfamily a, member 2 (SMARCA2, BRM): Luminescence-based cell-based high throughput dose response assay to identify non-selective compounds using the VP16 reporter assay.; format: functional
HEK293 [5] = test: cells; conditions: Homo sapiens; remark: listed apart in the source
[6] = biological target: SWI/SNF-related matrix-associated actin-dependent regulator of chromatin subfamily A member 2 (Homo sapiens, UniProt P51531); test: Luminescence-based cell-based high throughput dose response assay to identify activators of the function of SWI/SNF related, matrix associated, actin dependent regulator of chromatin, subfamily a, member 2 (SMARCA2, BRM).; format: functional
SWI/SNF-related matrix-associated actin-dependent regulator of chromatin subfamily A member 2, sequence (P51531 whole entry, the tested form may be a part): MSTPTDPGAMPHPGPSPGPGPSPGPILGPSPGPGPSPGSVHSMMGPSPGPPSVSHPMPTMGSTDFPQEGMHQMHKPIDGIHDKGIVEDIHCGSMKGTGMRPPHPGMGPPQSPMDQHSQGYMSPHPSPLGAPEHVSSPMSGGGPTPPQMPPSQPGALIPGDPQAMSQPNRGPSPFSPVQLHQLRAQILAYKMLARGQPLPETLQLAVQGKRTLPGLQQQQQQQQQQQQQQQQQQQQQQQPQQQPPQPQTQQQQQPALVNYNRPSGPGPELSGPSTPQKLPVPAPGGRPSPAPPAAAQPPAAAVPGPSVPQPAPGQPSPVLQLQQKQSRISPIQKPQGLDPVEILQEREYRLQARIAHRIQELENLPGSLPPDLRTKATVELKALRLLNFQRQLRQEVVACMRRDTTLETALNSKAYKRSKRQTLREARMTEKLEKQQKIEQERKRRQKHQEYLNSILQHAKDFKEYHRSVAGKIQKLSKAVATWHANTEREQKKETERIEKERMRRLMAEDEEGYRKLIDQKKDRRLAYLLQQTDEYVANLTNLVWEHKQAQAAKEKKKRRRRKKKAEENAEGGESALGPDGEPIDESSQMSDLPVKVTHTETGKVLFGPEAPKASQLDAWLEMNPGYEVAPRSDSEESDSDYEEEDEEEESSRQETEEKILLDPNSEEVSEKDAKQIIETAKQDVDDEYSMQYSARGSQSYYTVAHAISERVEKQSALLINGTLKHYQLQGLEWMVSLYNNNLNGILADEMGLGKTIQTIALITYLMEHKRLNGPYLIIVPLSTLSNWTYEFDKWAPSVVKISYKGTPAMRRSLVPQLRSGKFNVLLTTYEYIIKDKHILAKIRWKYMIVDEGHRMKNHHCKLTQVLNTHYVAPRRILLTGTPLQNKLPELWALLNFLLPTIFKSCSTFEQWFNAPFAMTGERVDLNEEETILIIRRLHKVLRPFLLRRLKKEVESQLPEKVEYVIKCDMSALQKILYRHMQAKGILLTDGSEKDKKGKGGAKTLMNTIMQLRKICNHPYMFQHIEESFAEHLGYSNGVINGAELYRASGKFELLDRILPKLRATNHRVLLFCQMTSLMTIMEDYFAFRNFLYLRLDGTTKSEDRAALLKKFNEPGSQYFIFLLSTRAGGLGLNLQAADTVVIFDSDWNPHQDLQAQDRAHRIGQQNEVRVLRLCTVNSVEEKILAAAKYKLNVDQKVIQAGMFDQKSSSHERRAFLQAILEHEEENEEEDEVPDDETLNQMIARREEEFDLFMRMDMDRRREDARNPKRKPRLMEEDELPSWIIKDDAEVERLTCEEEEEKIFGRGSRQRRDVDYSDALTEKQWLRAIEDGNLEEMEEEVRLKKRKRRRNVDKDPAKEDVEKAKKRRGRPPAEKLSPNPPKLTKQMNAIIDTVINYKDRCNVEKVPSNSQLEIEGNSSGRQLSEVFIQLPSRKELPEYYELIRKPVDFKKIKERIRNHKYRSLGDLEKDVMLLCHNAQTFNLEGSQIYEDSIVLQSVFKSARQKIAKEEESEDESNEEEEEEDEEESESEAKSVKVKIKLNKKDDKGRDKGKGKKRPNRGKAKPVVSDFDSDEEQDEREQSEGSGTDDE

[7] = biological target: E3 ubiquitin-protein ligase UHRF1 (Homo sapiens, UniProt Q96T88); test: Counterscreen for inhibitors of 5-meCpG-binding domain protein 2 (MBD2): TRFRET-based biochemical high throughput dose response assay to identify inhibitors of binding of ubiquitin-like with PHD and ring finger domains 1 (UHRF1) to methylated oligonucleotide.
E3 ubiquitin-protein ligase UHRF1, sequence (Q96T88 whole entry, the tested form may be a part): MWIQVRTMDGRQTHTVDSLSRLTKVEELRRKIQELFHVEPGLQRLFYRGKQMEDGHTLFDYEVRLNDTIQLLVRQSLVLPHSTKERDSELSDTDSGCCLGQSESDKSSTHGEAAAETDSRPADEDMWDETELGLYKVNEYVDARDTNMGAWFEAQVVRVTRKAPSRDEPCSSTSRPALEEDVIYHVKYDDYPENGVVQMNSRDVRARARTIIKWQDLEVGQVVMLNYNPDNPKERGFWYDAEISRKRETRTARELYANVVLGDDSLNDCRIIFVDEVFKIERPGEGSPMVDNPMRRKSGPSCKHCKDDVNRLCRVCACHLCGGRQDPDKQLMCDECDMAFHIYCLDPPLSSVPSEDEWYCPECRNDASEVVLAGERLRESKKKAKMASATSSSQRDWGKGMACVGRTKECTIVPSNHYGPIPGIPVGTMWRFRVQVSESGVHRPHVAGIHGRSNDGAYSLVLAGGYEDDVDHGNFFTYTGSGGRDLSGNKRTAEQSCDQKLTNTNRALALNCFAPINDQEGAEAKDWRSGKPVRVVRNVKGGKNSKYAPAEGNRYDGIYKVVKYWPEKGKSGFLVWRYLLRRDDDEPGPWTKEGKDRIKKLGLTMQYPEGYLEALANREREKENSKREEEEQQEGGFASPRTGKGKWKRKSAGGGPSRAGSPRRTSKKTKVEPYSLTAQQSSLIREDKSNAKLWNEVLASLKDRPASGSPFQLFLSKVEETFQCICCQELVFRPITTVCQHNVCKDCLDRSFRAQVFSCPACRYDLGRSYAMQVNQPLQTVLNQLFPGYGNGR

[8] = biological target: Neuropeptide Y receptor type 1 (Homo sapiens, UniProt P25929); test: Fluorescence-based counterscreen for agonists of NPY-Y2: cell-based high-throughput dose response assay for agonists of NPY-Y1.; format: functional
Neuropeptide Y receptor type 1, sequence (P25929 whole entry): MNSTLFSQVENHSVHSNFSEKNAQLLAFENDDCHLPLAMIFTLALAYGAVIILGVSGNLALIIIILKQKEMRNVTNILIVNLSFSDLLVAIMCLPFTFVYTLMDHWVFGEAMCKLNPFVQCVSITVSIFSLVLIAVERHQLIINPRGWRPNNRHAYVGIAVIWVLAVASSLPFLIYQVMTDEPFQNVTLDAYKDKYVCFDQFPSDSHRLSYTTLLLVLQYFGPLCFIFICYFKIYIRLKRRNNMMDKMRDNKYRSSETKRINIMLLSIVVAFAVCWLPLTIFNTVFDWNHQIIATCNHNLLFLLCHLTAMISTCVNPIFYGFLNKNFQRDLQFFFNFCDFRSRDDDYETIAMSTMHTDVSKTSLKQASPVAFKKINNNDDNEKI

[9] = biological target: T2, Beta-2 adrenergic receptor (Homo sapiens, UniProt P07550); test: Dose response for HTS for Beta-2AR agonists via FAP method from Powderset3.; format: functional
T2 sequence (P07550 whole entry): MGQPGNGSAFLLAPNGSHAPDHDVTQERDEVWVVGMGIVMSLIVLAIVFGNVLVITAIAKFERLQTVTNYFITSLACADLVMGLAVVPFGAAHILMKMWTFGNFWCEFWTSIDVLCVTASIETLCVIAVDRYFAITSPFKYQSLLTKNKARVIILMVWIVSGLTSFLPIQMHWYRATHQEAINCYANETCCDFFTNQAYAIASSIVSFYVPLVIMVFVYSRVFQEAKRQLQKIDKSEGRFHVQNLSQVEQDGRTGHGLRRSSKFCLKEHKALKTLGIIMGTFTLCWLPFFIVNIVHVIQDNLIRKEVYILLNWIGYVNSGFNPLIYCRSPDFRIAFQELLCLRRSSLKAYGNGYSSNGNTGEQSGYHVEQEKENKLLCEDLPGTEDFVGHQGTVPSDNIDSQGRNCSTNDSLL

HEK293 [10] = test: Fluorescence-based counterscreen for potentiators or agonists of NPY-Y2: cell-based high-throughput dose response assay to identify inhibitors of cyclic nucleotide gated ion channel (CNGC) activity. In this assay, the parental HEK293 cell line transfected with a cyclic-nucleotide gated ion channel (CNGC)-based cAMP sensor is used to measure inhibition of isoproterenol-induced CNGC activity by test compound.; format: functional; conditions: Homo sapiens
[11] = biological target: T2, Beta-2 adrenergic receptor; test: beta2AR agonists driving receptor internalization, dose response, cell-based, FAP fluorogen, flow cytometry, cherry pick 1 (AID 588763); format: functional
[12] = biological target: Neuropeptide Y receptor type 2 (Homo sapiens, UniProt P49146); test: Fluorescence-based cell-based high-throughput dose response assay for agonists of NPY-Y2. [Related pubchem assays: 1703 (Screening assay (CNGC inhibitors).), 1359 (Screening assay (NPY-Y2 potentiators or agonists).), 1304 (Screening assay (NPY-Y1 potentiators or agonists).), 1710 (Screening assay (NPY-Y2 agonists).), 1791 (Summary AID.)]; format: functional
Neuropeptide Y receptor type 2, sequence (P49146 whole entry): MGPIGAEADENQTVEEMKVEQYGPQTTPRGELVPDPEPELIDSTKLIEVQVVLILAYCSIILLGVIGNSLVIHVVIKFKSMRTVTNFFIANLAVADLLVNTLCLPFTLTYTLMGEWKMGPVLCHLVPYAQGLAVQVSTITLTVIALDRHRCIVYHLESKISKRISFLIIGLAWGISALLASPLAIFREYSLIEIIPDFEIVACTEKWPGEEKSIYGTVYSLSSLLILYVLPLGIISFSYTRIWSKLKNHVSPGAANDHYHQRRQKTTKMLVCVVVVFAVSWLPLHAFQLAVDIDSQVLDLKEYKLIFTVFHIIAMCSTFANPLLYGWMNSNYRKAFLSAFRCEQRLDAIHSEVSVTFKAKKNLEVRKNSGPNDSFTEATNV

[13] = biological target: T3, Corticotropin-releasing factor receptor 2/Corticotropin-releasing factor-binding protein (Homo sapiens, UniProt P24387+Q13324); test: Dose Response confirmation of uHTS hits for small molecule antagonists of the CRF-binding protein and CRF-R2 receptor complex.; format: functional; conditions: read-out: IC50_Mean
T3 sequence (Q13324 whole entry): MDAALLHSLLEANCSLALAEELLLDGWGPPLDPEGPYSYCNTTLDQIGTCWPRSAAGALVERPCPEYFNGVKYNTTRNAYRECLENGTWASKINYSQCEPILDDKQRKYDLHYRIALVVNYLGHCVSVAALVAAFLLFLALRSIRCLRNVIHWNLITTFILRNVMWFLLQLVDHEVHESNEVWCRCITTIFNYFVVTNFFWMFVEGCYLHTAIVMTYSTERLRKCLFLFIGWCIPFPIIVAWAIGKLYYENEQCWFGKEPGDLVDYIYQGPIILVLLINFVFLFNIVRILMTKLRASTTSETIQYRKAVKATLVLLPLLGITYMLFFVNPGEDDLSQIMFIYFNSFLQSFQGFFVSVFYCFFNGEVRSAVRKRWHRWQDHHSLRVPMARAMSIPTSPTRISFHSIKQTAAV
T3 sequence (P24387 whole entry): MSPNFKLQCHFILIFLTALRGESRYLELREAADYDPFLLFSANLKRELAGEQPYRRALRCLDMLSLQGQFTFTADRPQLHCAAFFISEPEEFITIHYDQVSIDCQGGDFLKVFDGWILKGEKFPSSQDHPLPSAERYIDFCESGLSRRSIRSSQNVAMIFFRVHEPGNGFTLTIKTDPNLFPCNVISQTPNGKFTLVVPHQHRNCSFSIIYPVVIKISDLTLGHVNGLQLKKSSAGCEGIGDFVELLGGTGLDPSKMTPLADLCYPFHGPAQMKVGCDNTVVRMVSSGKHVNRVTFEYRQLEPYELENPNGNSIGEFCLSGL

[14] = growth induction of Burl-1 ts yeast mutant, dose response, counter-screen for SUMOylation pathway inhibitor project, whole organism, S. cerevisiae, luminescence (AID 463199); format: functional
[15] = biological target: T3, Corticotropin-releasing factor receptor 2/Corticotropin-releasing factor-binding protein; test: activators of CRF receptor 2 with binding protein – uHTS hits, confirmation (AID 602473); format: functional; conditions: read-out: EC50_Mean
HEK293 [16] = test: cytotoxicity in HEK293T NF-kB-Luc cells, SAR follow-up, cytotoxicity control for NF-kB activator project, cell-based, resazurin fluorescence (AID 493251); format: functional; conditions: Homo sapiens
[17] = cytotoxicity toward DRD oncogenic fibroblasts, dose response, cell-based, non-viral oncogenic, luminescence (AID 1934); format: functional; conditions: Homo sapiens
[18] = cytotoxicity in HEK-293T NF-kB-Luc cells, dose response, cytotoxicity control for B/T-cell NF-kB inhibitor project, cell-based, uHTS hits (AID 489019); format: functional;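 note: IC50 reflects cytotoxicity as loss of cell viability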
BJ [19] = test: cytotoxicity toward BJ-TERT fibroblasts, dose response, cell-based, RAS-independent, luminescence (AID 1933); format: functional; conditions: Homo sapiens
BJ [20] = test: cytotoxicity toward BJ-TERT-LT-ST fibroblasts, dose response, cell-based, RAS-independent, luminescence (AID 1935); format: functional; conditions: Homo sapiens;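 note: BJ fibroblasts immortalized with TERT plus LT and ST oncogenes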
BJ [21] = test: cells; format: functional, cell-based; conditions: Homo sapiens
Jurkat [22] = test: antigen receptor-induced NF-kB inhibitors, dose response, Jurkat, luciferase reporter, luminescence, B- and T-cell (AID 489004); format: functional, cell-based; conditions: Homo sapiens;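 note: NF-kB luciferase reporter Jurkat cells stimulated with PMA plus ionomycin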
Jurkat [23] = test: SAR Analysis of small molecule inhibitors of T-cell specific antigen receptor-induced NF-kB activation in a Jurkat cell line using a luminescence assay - Set 2. [Related pubchem assays (depositor defined):AID435003, AID435012, AID465]; format: functional, cell-based; conditions: Homo sapiens
HEK293 [24] = test: SAR Analysis of small molecule inhibitors of T-cell specific antigen receptor-induced NF-kB activation in a HEK-293T cell line using a luminescence assay - Set 2. [Related pubchem assays (depositor defined):AID435003, AID435012, AID489026]; format: functional, cell-based; conditions: Homo sapiens
[25] = NIH-3T3 fibroblast cytotoxicity, dose response, cytotoxicity control, cell-based, fluorescence, Alamar Blue, secondary assay (AID 2327); format: functional;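 note: NIH-3T3 mouse fibroblasts cultured with fluconazole at 8 µg/mL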
[26] = biological target: Serine/threonine-protein phosphatase (Candida dubliniensis (strain CD36 / CBS 7987 / NCPF 3949 / NRRLY-17841) (Yeast), UniProt B9W6M3); test: calcineurin pathway inhibitors in yeast reporter, dose response, S. cerevisiae, CDRE-lacZ, luminescence, secondary (AID 2388); format: functional, cell-based;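 note: yeast reporter cells carrying a calcineurin-responsive lacZ construct stimulated with calcium chloride; luminescent beta-galactosidase reporter signal in whole cells rather than isolated phosphatase activity; potency for inhibition where a drop in reporter signal means calcineurin blockade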
Serine/threonine-protein phosphatase, sequence (B9W6M3 whole entry): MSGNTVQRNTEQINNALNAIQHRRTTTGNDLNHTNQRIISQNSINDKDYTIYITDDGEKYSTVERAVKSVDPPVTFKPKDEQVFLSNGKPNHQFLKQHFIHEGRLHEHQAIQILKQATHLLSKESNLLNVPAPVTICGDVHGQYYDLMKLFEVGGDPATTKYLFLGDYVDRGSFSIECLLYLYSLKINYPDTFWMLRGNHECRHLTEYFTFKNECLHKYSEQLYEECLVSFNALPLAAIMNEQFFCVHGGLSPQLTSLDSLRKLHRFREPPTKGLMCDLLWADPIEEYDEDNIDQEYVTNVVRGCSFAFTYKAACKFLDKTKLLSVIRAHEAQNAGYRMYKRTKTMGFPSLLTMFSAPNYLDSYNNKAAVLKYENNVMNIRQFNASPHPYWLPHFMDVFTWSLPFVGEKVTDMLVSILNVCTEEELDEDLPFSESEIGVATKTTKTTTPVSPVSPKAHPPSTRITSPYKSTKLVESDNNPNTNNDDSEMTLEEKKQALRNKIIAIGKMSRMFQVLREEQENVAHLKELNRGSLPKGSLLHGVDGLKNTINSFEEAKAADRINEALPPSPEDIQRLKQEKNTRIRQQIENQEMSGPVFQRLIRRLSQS

[27] = C. albicans growth with fluconazole, confirmation, fluorescence, retest (AID 2467); format: functional, cell-based
[28] = biological target: ATP-dependent molecular chaperone HSP82 (Candida albicans (strain WO-1) (Yeast), UniProt C4YTQ8); test: loss of DOC-induced GRE-beta-galactosidase reporter signal, dose response, Hsp90 inhibitor project, S. cerevisiae, luminescence (AID 2400); format: functional, cell-based;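 note: beta-galactosidase luminescence from glucocorticoid response element reporter as proxy for Hsp90 function; inhibitor potency where signal loss means Hsp90 inhibition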
ATP-dependent molecular chaperone HSP82, sequence (C4YTQ8 whole entry): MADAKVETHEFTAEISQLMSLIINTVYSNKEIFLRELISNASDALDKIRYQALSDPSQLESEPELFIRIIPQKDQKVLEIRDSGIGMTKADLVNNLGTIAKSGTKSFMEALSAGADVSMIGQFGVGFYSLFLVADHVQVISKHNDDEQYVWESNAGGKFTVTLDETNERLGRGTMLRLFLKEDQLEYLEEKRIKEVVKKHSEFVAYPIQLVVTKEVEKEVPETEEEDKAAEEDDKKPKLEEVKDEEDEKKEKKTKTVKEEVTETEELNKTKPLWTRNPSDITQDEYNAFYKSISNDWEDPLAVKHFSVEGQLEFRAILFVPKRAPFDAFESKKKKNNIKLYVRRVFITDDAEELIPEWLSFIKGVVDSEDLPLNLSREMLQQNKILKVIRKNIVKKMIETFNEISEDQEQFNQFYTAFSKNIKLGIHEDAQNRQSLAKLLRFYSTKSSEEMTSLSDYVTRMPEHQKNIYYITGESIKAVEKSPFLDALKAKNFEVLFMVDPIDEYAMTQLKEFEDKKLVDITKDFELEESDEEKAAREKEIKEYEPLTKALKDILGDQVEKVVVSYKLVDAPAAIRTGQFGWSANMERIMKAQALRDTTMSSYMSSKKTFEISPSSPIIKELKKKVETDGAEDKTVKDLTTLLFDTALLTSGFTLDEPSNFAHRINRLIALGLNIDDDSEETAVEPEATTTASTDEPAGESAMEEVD

SMILES: c1ccc2c(c1)C1=NCCN1c1ccccc1-2
AC50 [1]: 5.19 µM (active) | IC50 [2]: 9.24 µM (active) | EC50 (HEK293 [3]): > 59.8 µM (inactive) | EC50 [4]: > 91.3 µM (inactive) | EC50 (HEK293 [5]): > 59.8 µM (inactive) | EC50 [6]: > 3.38 µM (active) | IC50 [7]: 37 µM (inactive)

SMILES: Clc1ccc(OCc2nnc(SCc3nc4ccccc4[nH]3)n2Cc2ccco2)cc1
EC50 [8]: > 35.4 µM (not active) | EC50 [9]: 6.9 nM (active) | EC50 (HEK293 [10]): > 35.4 µM (not active) | EC50 [11]: 205 nM (active) | EC50 [12]: > 35.4 µM (not active)

IC50 [13]: > 47.1 µM (inactive) | EC50 [15]: > 53 µM (inactive)
SMILES: CCCCn1c(N)c(N(Cc2ccccc2OC)C(=O)c2c(CC)noc2C)c(=O)[nH]c1=O
AC50 [14]: 61.2 µM (active)

SMILES: COc1cc2nc(NC(=O)c3ccccc3)sc(=O)c2cc1OC
IC50 (HEK293 [16]): > 80 µM (inactive) | EC50 [17]: 79 µM (active) | IC50 [18]: > 80 µM (inactive) | EC50 (BJ [19]): 20.1 µM (active) | EC50 (BJ [20]): > 150 µM (inconclusive) | EC50 (BJ [21]): > 150 µM (not active) | IC50 (Jurkat [22]): 760 nM (active) | IC50 (Jurkat [23]): 560 nM (active) | IC50 (HEK293 [24]): 65.6 µM (inactive)

SMILES: Oc1nc(S)nnc1Cc1ccc(Cl)c(Cl)c1
EC50 [25]: > 160 µM (inactive) | EC50 [26]: > 180 µM (inactive) | EC50 [27]: 241 nM (active) | EC50 [28]: > 160 µM (inactive)

From ChEMBL document CHEMBL1201862, “PubChem BioAssay data set” (2004)
